Blank lines part the entries; values can stand above or below the compound they belong to.
Experiments:
D-hydantoinase (Sigma) = experiment: Substrate specificity of Vigna angularis hydantoinase; type: biochemical; settings: Tris buffer pH 7.5, 0.1 M; D-hydantoinase 7 g/L; substrate 5 mM
Description: Various substrates were synthesized as described in Example 4 and subjected to hydantoinase catalyzed conversion [Tris buffer (pH 7.5, 0.1 M, 1.0 mL), D-hydantoinase, (Sigma, 7 g/L), substrate (5 mM solutions predissolved in buffer unless aromatic substituent (4a, 4b, 4c), in which case substrate is dissolved in 100 microlitres DMSO and added to 900 microlitres of buffer)]. The reaction is shown in FIG. 10, the results are shown in Table 4, wherein the E-value is defined as follows: E value=(ln(1−[product](1+ee)))/(ln(1−[product]*(1−ee)))

[1] = test system: hydantoinase (obtained from Sigma); experiment: Hydantoinase catalysed hydrolysis of racemic 6-PDHU and reverse cyclisation, chiral reverse-phase HPLC; type: biochemical, Vigna angularis; settings: for cyclisation of N-carbamoyl-β-phenylalanine (reverse reaction): with hydantoinase
Description: Unless otherwise stated all experiments were carried out on a 5 mM scale of 6-PDHU (4.75 mg) in 5 mL tris buffer (0.1 M pH 7.5) with 1U of commercially available hydantoinase from Vigna angularis (35 mg, obtained from Sigma, St. Louis, USA) in 15 mL Falcon tubes, incubated in a thermomixer (Falcon) at 750 rpm and a temperature of 50° C.
For chiral rpHPLC the following column, buffer and running conditions were used: • Astec Chirobiotic™ T 25 cm×4.6 mm, 5 μm (Sigma-Aldrich, St. Louis, USA) Ammonium Acetate buffer (pH 5.5):Methanol, 70:30, 25° C., 0.5 mL/min
Initially the hydantoinase (obtained form Sigma, St. Louis, USA) catalysed hydrolysis of (±)-6-PDHU (racemic 6-phenyldihydrouracil) (4a in FIG. 2: R=Ph) was studied as a model system. Reactions were carried out at a substrate concentration of 5 mM in Tris buffer [pH 7.5] and monitored by reverse-phase chiral HPLC as described in Example 7, which allowed simultaneous determination of both the extent of conversion in the reaction and also the enantiomeric excess of unreacted dihydrouracil 4a and the N-carbamoyl derivative 5 (FIG. 4, cf. also Scheme 2). […] All reactions gave an equilibrium concentration of 6-PDHU:(S)-NCBPA=51:49. The enantiomeric excess of (S)-NCBPA exceeded 96% during the whole observation period.

[2] = test system: Pseudomonas putida IFO 12996; settings: hydrolysis using Pseudomonas putida IFO 12996, JP06261787; cited from earlier work
[3] = test system: D-hydantoinase from Sigma; experiment: pH/buffer dependency of hydantoinase conversion of 6-PDHU; type: biochemical, Vigna angularis; settings: 22 hours
Description: 6-PDHU was incubated in phosphate buffer (0.1 M, potassium dihydrogen phosphate and dipotassium hydrogen phosphate, volumes adjusted to the appropriate pH) or Tris buffer at various pH values for (up to 8h, using 7 g/L D-hydantoinase from Sigma). […] In an additional experiment conversion rates were determined for phosphate or Tris buffers at various pH values over time. 5 mM 6-PHDU was incubated in phosphate buffer (pH 6.0, 7.0, 7.5, 8.0) and Tris buffer (pH 7.5) buffers for 22 hours. The results are shown in FIG. 9 (wherein diamonds, squares, triangles and crosses represent phosphate buffer at pH 6, pH 7, pH 7.5 or pH 8, respectively, and dots represents Tris buffer at pH 7.5) and Table 3 (ee=enantiomeric excess [%]).

[4] = test system: hydantoinase obtained from Sigma; experiment: Specific activity of commercially available hydantoinase (Sigma) towards substrates, HPLC; type: biochemical, Vigna angularis; settings: Enzyme from Sigma; 5 mM substrate, 50 mM Tris HCl pH 7.5, 30 min, 40° C.
Description: (§1) To determine and compare the specific activity of the Sigma enzyme and the purified hydantoinase (BP) 5 mM of hydantoin, 5-phenylhydantoin or 6-phenyldihydrouracil, respectively, in 50 mM Tris HCl pH 7.5 were incubated with different amounts of enzyme for 30 min at 40° C. The reaction was stopped by adding conc. HCl and then measured by HPLC.

[5] = test system: hydantoinase isolated in Example 2; experiment: Specific activity of the hydantoinase isolated in Example 2 towards substrates, HPLC; type: biochemical, Vigna angularis; settings: Enzyme from Example 2; 5 mM substrate, 50 mM Tris HCl pH 7.5, 30 min, 40° C.
Description: as §1

[6] = pH dependency of chemical hydrolysis of 6-PDHU in Tris buffer without enzyme; type: physicochemical; settings: 24 hours, no enzyme
Description: 6-PDHU was incubated at 50° C. for 24 hours in Tris buffer at different pH values. Appreciable background hydrolysis of 6-PDHU occurred with a strong pH and buffer dependency. In Tris buffer at pH 7, a background hydrolysis of 0.5% was observed. At pH 9, the background hydrolysis amounted to ca. 20% (FIG. 7).

E value (D-hydantoinase (Sigma)): >100 | Relative rate of enzymatic hydrolysis (D-hydantoinase (Sigma)): 41
Compound: O=C1CC(c2ccc(Cl)cc2)NC(=O)N1 (stereo not shown) [Substrate 4c, 6-(4-chloro-phenyl)-dihydrouracil]

E value ([1]; selective for the (S)-enantiomer, 5 mM substrate, Tris buffer pH 7.5): > 100 | ee (enantiomeric excess) ([3]; Phosphate buffer pH 6.00, 5 mM): >99.90% | ee (enantiomeric excess) ([3]; Phosphate buffer pH 7.00, 5 mM): >99.90% | ee (enantiomeric excess) ([3]; Phosphate buffer pH 7.50, 5 mM): 96.62% | ee (enantiomeric excess) ([3]; Phosphate buffer pH 8.00, 5 mM): 92.73% | ee (enantiomeric excess) ([3]; Tris buffer pH 7.50, 5 mM): >99.90% | specific activity [4]: 6 | specific activity [5]: 72 | E value (D-hydantoinase (Sigma)): >200 | Relative rate of enzymatic hydrolysis (D-hydantoinase (Sigma)): 7 | background hydrolysis ([6]; Tris buffer pH 7, 50° C.): 0.5% | background hydrolysis ([6]; Tris buffer pH 9, 50° C.): ca. 20%
Compound: O=C1CC(c2ccccc2)NC(=O)N1 (racemic) [Substrate 4a, (±)-6-phenyldihydrouracil]
enantiomeric excess [2]: up to 51%

E value (D-hydantoinase (Sigma)): >100 | Relative rate of enzymatic hydrolysis (D-hydantoinase (Sigma)): 15
Compound: O=C1CC(c2ccc(F)cc2)NC(=O)N1 (stereo not shown) [Substrate 4b, 6-(4-fluoro-phenyl)-dihydrouracil]

Relative rate of enzymatic hydrolysis (D-hydantoinase (Sigma)): 100
Compound: O=C1CCNC(=O)N1 [Substrate 4e, dihydrouracil]

E value (D-hydantoinase (Sigma)): 5 | Relative rate of enzymatic hydrolysis (D-hydantoinase (Sigma)): 52
Compound: CC1CC(=O)NC(=O)N1 (stereo not shown) [Substrate 4h, 6-methyldihydrouracil]

The remaining lines, values behind:

Compound: NC(=O)N[C@@H](CC(=O)O)c1ccccc1 [(S)-NCBPA, (S)-N-carbamoyl-β-pheynylalanine]
enantiomeric excess of (S)-NCBPA ([1]; during the whole observation period): exceeded 96%

Compound: CC1CNC(=O)NC1=O (stereo not shown) [Substrate 8, 5-methyldihydrouracil]
Relative rate of enzymatic hydrolysis (D-hydantoinase (Sigma)): 23

Compound: NC(=O)NC(CC(=O)O)c1ccccc1 (racemic) [N-carbamoyl-β-phenylalanine, (±)—N-carbamoyl-β-phenylalanine]
cyclisation of N-carbamoyl-β-phenylalanine (reverse reaction) [1]: highly (S)-selective

Compound: NC(=O)N[C@H](CC(=O)O)c1ccccc1 [(R)-NCBPA, (R)—N-carbamoyl-β-phenylalanine]
cyclisation of N-carbamoyl-β-phenylalanine (reverse reaction) [1]: no appreciable cyclisation

Compound: O=C1CNC(=O)N1 [Hydantoin, hydantoin]
specific activity [4]: 217 | specific activity [5]: 425

Compound: O=C1NC(=O)C(c2ccccc2)N1 (stereo not shown) [5-Phenylhydantoin, 5-phenylhydantoin]
specific activity [4]: 261 | specific activity [5]: 557

Reference: US9096841B2, “Preparation of beta-amino acids” (BASF SE, priority 2009, dated 2015)
